Structures are written as SMILES. Where only a bound is given, the exact number is not on record here.

Holding throughout (format): in vitro ADME
Series [1] relates to MDR1. The series can be described thus: MDCK-MDR1 permeability assay. To be noted: dog, 3 μM test compound; for efflux ratio at 2 h, 3 μM: Papp (B→A) divided by Papp (A→B), read-out: Efflux ratio (ER); for Papp A→B at 2 h, 3 μM: apical to basolateral, 2 hours at 37 degrees C. Here is the method: The bidirectional permeability (Apical to Basal and Basal to Apical directions) of test compounds in MDCK-MDR1 cells were evaluated using MDCK-MDR1 cells seeded in Solvo PreadyPort™ MDCK 96-well plate. Once the plate was received from ReadyCell (Barcelona, Spain), it was treated as per PreadyPort™ user's manual.
For the Apical to Basolateral (A→B) permeability, 80 μL of test compound (3 μM) co-dosed with LY (Lucifer Yellow) (100 μM) in HBSS (Hank's Balanced Salt Solution) assay buffer was added to the donor side (A) while 250 μL of HBSS buffer was added to the receiver side (B). For the Basolateral to Apical (B→A) permeability, 255 μL of test compound (3 μM) in HBSS assay buffer was added to the donor side (B) while 75 μL of HBSS buffer containing LY (100 μM) was added to the receiver side (A).
The plate was placed in an incubator set at 37 degrees C. After 10 minutes of pre-warming, 5 μL aliquot was taken from donor compartment and set aside as the dosing solution. The MDCK-MDR1 incubation plate was placed back into the incubator for 2 hours of incubation at 37 degrees C. After 2 hours of incubation, 25 μL and 5 μL aliquots were removed from the receiver and donor sides, respectively. To the 5 μL aliquots taken from the donor sides (before and after a 2-hour incubation) were diluted with 20 μL of the HBSS buffer. All samples were mixed with 150 μL with acetonitrile containing internal standard (IS) and 200 μL water, and analyzed by LC-MS/MS.
The apparent permeability (Papp) was calculated using the following formula: Papp=dQ/dt×1/A×C0 where: • dQ/dt: amount of translocated material over incubation time (nmol/s) • A: area of insert (0.14 cm^2 for PreadyPort™ MDR1-96) • C0: initial concentration of product applied in apical (A→B) or basal (B→A) compartment (nmol/mL).
The efflux ratio (ER) was measured by dividing the Papp (basolateral to apical direction) by Papp (apical to basolateral direction). It is a general measure of the involvement of active processes. An ER >2 is considered positive for active transport.
The data reported in Table 3 were obtained according to the MDCK-MDR1 permeability assay described above.

A short description of series [2]: Hepatocytes stability assay (human hepatocytes). The settings on record: both sexes, cryopreserved hepatocytes, 1 μM test compound, 1×10^6 cell/mL, read-out: CLint (μL/min/million cells). The procedure: (§1) In vitro metabolic stability was assessed using cryopreserved hepatocytes from male Sprague Dawley rats and a pool of 50 mixed gender humans (BioIVT, Baltimore, MD). The incubation mixtures were prepared by mixing 250 μL of pre-warmed KHB (Krebs-Henseleit buffer) containing 2×10^6 cell/mL of hepatocytes with 250 μL of pre-warmed KHB buffer containing 2 μM of test compounds in a 48-well plate, giving a final concentration of 1 μM test compound (0.1% DMSO) and 1×10^6 cell/mL of hepatocytes. The reaction mixture was incubated at 37 degrees C. A 50 μL aliquot of incubation mixture was taken at time points (0, 15, 30, 60, 120 and 240 minutes) and transferred into a 96-well plate containing 300 μL ice-cold acetonitrile (containing 30 ng/mL of labetalol and 10 ng/mL of Naltrexone-d3 as internal standards) and immediately placed in ice to terminate the reaction. Samples were centrifuged, and supernatants were transferred into 96-well plates for liquid chromatography with tandem mass spectrometry (LC-MS/MS) analysis to monitor the depletion of the test compound. Data was calculated as percent remaining by assuming zero-minute time point peak area ratio (analyte/IS) as 100% and dividing remaining time point peak area ratios by zero-minute time point peak area ratio. Data were fitted to a first-order decay model to determine half-life. From a plot of log (ln) peak area against time, the slope of the line was determined. Subsequently, half-life (T1/2) and intrinsic clearance (CLint) were calculated using the equations below: • Elimination rate constant (k)=(−slope) • Half-life (T1/2) min=0.693/k • Intrinsic Clearance (CLint) (mL/min/million cells)=(V×0.693)/T1/2 • V=incubation volume mL/number of cells The in vitro T1/2 was converted to in vitro intrinsic clearance (CLint,hep) in units of mL/min/kg using the formula shown below: The in vitro intrinsic clearance (CLint,hep) was scaled to in vivo hepatic clearance (CL,hep) using the following equation which was adapted from a well-stirred model. [formula] where Q is the liver blood flow and fu is the fraction unbound (assumed to be unity in this case). All parameters used in the calculation are shown below (Table 4). The extraction ratio (ER) was calculated by dividing the hepatic clearance of a compound to the liver blood flow. The data reported in Table 5 were obtained according to the human hepatocytes stability assay described above.

Series [3] has as its system human hepatocytes. The series can be described thus: Hepatocytes stability assay (human hepatocytes). To be noted: hepatic clearance divided by liver blood flow, fu assumed unity. The procedure:
as §1

As usually defined, the Papp A→B is the apparent permeability from the apical to the basolateral side of a cell layer. Read a high Papp A→B as fast passage. Turning to `CS(=O)(=O)N[C@H]1CCN(c2cccc3ncnn23)CC1COC1CCC(c2ccccc2)CC1` (stereo partly drawn) [Compound 43], in series [1], the efflux ratio at 2 h, 3 μM is 8.8 and the Papp A→B at 2 h, 3 μM amounted to 2.4 ×10⁻⁶ cm/s. Besides, in series [2], the hepatocyte CLint at 1 μM stood at 102 µL/min/1e6 cells. Moreover, in series [3], the “Extraction Ratio (ER)” value was 0.94.
With `CS(=O)(=O)N[C@H]1CCN(c2ncccc2F)CC1COC1CCC(c2ccccc2)CC1` (stereo partly drawn) [Compound 26], in series [1], the efflux ratio at 2 h, 3 μM worked out at 37 and the Papp A→B at 2 h, 3 μM was determined as 0.31 ×10⁻⁶ cm/s. Further, the hepatocyte CLint at 1 μM in series [2] was 55 µL/min/1e6 cells. Moreover, the “Extraction Ratio (ER)” value in series [3] was determined as 0.89.
The matching figures for `CS(=O)(=O)N[C@H]1CCN(c2ccccn2)CC1COC1CCC(c2cnccn2)CC1` (stereo partly drawn) [Compound 9]: 25, 0.97 ×10⁻⁶ cm/s, 45 µL/min/1e6 cells and 0.87.
The matching figures for `CS(=O)(=O)N[C@H]1CCN(c2nccc3ncnn23)CC1COC1CCC(c2ccccc2)CC1` (stereo partly drawn) [Compound 44]: 6.4, 3 ×10⁻⁶ cm/s, 133 µL/min/1e6 cells and 0.95.
The matching figures for `Cc1cc(C)cc(C2CCC(OCC3CN(c4ccccn4)CC[C@@H]3NS(C)(=O)=O)CC2)c1` (stereo partly drawn) [Compound 18]: above 2.6, below 1.8 ×10⁻⁶ cm/s, 36 µL/min/1e6 cells and 0.84.
For `CS(=O)(=O)N[C@H]1CCN(c2cc(F)ccn2)CC1COC1CCC(c2ccccc2)CC1` (stereo partly drawn) [Compound 25], in series [1], the efflux ratio at 2 h, 3 μM is above 58 and the Papp A→B at 2 h, 3 μM was below 0.41 ×10⁻⁶ cm/s. For the same compound, the hepatocyte CLint at 1 μM in series [2] stood at 73 µL/min/1e6 cells. In addition, the “Extraction Ratio (ER)” value in series [3] was determined as 0.92.
On the same counts, the results for `CS(=O)(=O)N[C@H]1CCN(c2ncccn2)CC1COC1CCC(c2ccccc2)CC1` (stereo partly drawn) [Compound 19] are 14, 1.2 ×10⁻⁶ cm/s, 93 µL/min/1e6 cells and 0.93.
For the compound `CS(=O)(=O)N[C@H]1CCN(c2ccccn2)CC1COC1CCC(c2ccncn2)CC1` (stereo partly drawn) [Compound 8], in series [1], the efflux ratio at 2 h, 3 μM turned out to be 15 and the Papp A→B at 2 h, 3 μM was found to be 1.8 ×10⁻⁶ cm/s. Also, the hepatocyte CLint at 1 μM in series [2] turned out to be 30 µL/min/1e6 cells. Further, the “Extraction Ratio (ER)” value in series [3] was 0.82.
On the same counts, the results for `CS(=O)(=O)N[C@H]1CCN(c2ccccn2)CC1COC1CCC(c2ccccc2)CC1` (stereo partly drawn) [Compound 10] are 1.4, 5.6 ×10⁻⁶ cm/s, 73 µL/min/1e6 cells and 0.92.
The matching figures for `CS(=O)(=O)N[C@H]1CCN(c2ccccn2)CC1COC1CCC(c2cccc(C(F)(F)F)c2)CC1` (stereo partly drawn) [Compound 33]: 15, 0.07 ×10⁻⁶ cm/s, 79 µL/min/1e6 cells and 0.92.
On the same counts, the results for `CS(=O)(=O)N[C@H]1CCN(c2ccccn2)CC1COC1CCC(c2cccnn2)CC1` (stereo partly drawn) [Compound 14] are above 56, below 0.12 ×10⁻⁶ cm/s, 22 µL/min/1e6 cells and 0.77.
With `CS(=O)(=O)N[C@H]1CCN(c2ccccn2)CC1COC1CCC(c2cncnc2)CC1` (stereo partly drawn) [Compound 12], in series [1], the efflux ratio at 2 h, 3 μM was 33 and the Papp A→B at 2 h, 3 μM was 1 ×10⁻⁶ cm/s. The hepatocyte CLint at 1 μM in series [2] was 35 µL/min/1e6 cells. Also, the “Extraction Ratio (ER)” value in series [3] was determined as 0.84.
On the same counts, the results for `CS(=O)(=O)N[C@H]1CCN(c2ccccn2)CC1COC1CCC(c2ncccn2)CC1` (stereo partly drawn) [Compound 11] are 11, 1.6 ×10⁻⁶ cm/s, 21 µL/min/1e6 cells and 0.76.
The matching figures for `CS(=O)(=O)N[C@H]1CCN(c2ccccn2)CC1COC1CCC(c2ccnnc2)CC1` (stereo partly drawn) [Compound 13]: 18, 0.67 ×10⁻⁶ cm/s, 16 µL/min/1e6 cells and 0.71.
The matching figures for `CS(=O)(=O)N[C@H]1CCN(Cc2ccccc2)CC1COC1CCC(c2ccccc2)CC1` (stereo partly drawn) [Compound 36]: above 12, below 0.21 ×10⁻⁶ cm/s, 58 µL/min/1e6 cells and 0.90.
In the case of `CS(=O)(=O)N[C@H]1CCN(Cc2ccncc2)CC1COC1CCC(c2ccccc2)CC1` (stereo partly drawn) [Compound 41], in series [1], the efflux ratio at 2 h, 3 μM worked out at 16 and the Papp A→B at 2 h, 3 μM is 1.7 ×10⁻⁶ cm/s. In addition, in series [2], the hepatocyte CLint at 1 μM came to 107 µL/min/1e6 cells. Moreover, the “Extraction Ratio (ER)” value in series [3] turned out to be 0.94.
On the same counts, the results for `CS(=O)(=O)N[C@H]1CCN(Cc2ccccn2)CC1COC1CCC(c2ccccc2)CC1` (stereo partly drawn) [Compound 39] are 15, 1.4 ×10⁻⁶ cm/s, 59 µL/min/1e6 cells and 0.90.
On the same counts, the results for `CS(=O)(=O)N[C@H]1CCN(c2ncccc2O)CC1COC1CCC(c2ccccc2)CC1` (stereo partly drawn) [Compound 27] are 3, 2.7 ×10⁻⁶ cm/s, 75 µL/min/1e6 cells and 0.92.
On the same counts, the results for `Cc1ccccc1C1CCC(OCC2CN(c3ccccn3)CC[C@@H]2NS(C)(=O)=O)CC1` (stereo partly drawn) [Compound 15] are above 6.9, below 0.33 ×10⁻⁶ cm/s, 64 µL/min/1e6 cells and 0.91.
Take `CS(=O)(=O)N[C@H]1CCN(c2ccccn2)CC1COC1CCC(c2cccc(O)c2)CC1` (stereo partly drawn) [Compound 31]: in series [1], the efflux ratio at 2 h, 3 μM came out at 18 and the Papp A→B at 2 h, 3 μM was determined as 1 ×10⁻⁶ cm/s. In addition, the hepatocyte CLint at 1 μM in series [2] turned out to be 81 µL/min/1e6 cells. Moreover, the “Extraction Ratio (ER)” value in series [3] worked out at 0.92.
On the same counts, the results for `CS(=O)(=O)N[C@H]1CCN(c2ccccn2)CC1COC1CCC(c2ccccc2O)CC1` (stereo partly drawn) [Compound 30] are 28, 0.7 ×10⁻⁶ cm/s, 45 µL/min/1e6 cells and 0.87.
The matching figures for `CS(=O)(=O)N[C@H]1CCN(c2cccc3ccnn23)CC1COC1CCC(c2ccccc2)CC1` (stereo partly drawn) [Compound 42]: 2.9, 0.86 ×10⁻⁶ cm/s, 100 µL/min/1e6 cells and 0.94.
On the same counts, the results for `CS(=O)(=O)N[C@H]1CCN(c2ncccc2C(F)(F)F)CC1COC1CCC(c2ccccc2)CC1` (stereo partly drawn) [Compound 28] are above 3.4, below 1.2 ×10⁻⁶ cm/s, 154 µL/min/1e6 cells and 0.96.
Take `CS(=O)(=O)N[C@H]1CCN(Cc2cccnc2)CC1COC1CCC(c2ccccc2)CC1` (stereo partly drawn) [Compound 40]: in series [1], the efflux ratio at 2 h, 3 μM was 8.2 and the Papp A→B at 2 h, 3 μM turned out to be 1.3 ×10⁻⁶ cm/s. Moreover, the hepatocyte CLint at 1 μM in series [2] worked out at 86 µL/min/1e6 cells. Further, the “Extraction Ratio (ER)” value in series [3] is 0.93.
